For 19 molecules, IC50 results are on record in patent US10543212B2, “Substituted amines for treating cardiac diseases” (Cardurion Pharmaceuticals, LLC, priority 2017, dated 2020).

Each structure is given as a SMILES string.

For this assay, the target named is T1, Full-length, GST-tagged, human CaMKIIδ (Homo sapiens, UniProt Q13557).
T1 construct: Full-Length, Glutathione-S-Transferase(GST)-Tagged, Human CaMKIIδ was purchased from Carna Biosciences; purchased Carna Biosciences 02-111
Kind of assay: CaMKIIδ binding assay (TR-FRET with BODIPY-labeled probe ligand). Summed up:
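Compounds were tested as 4-fold, eight-point series for 1 hr at room temperature, and IC50 was obtained by logistic fitting against a 3 μM parent-compound control. Signal came from displacement of a 300 nM BODIPY ligand from 0.5 nM GST-CaMKIIδ, detected via Tb-anti-GST in calmodulin/Ca2+ (pH 7.6).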

[1] abbreviates: Table 2, activity class for CaMKIIδ.
[2] abbreviates: CaMKIIδ binding assay, results of Table 2.
[3] abbreviates: CaMKIIδ binding assay, activity class per Table 2.
[4] abbreviates: Table 2, CaMKIIδ binding assay, activity given as class A/B/C.

T1 sequence (Q13557 1-478 isoform Q13557-12): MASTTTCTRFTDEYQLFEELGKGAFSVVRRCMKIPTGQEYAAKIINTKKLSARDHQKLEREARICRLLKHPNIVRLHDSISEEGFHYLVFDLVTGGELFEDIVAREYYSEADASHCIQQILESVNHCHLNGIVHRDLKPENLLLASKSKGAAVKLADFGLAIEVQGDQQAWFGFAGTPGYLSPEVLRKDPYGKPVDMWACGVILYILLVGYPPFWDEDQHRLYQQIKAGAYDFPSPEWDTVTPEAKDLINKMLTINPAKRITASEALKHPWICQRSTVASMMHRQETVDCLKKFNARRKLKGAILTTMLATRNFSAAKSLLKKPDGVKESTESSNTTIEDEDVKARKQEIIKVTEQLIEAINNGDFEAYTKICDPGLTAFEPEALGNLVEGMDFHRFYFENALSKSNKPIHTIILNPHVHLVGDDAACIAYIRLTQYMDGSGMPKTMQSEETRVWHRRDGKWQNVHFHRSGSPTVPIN

`C[C@@H](Cn1cnnn1)Oc1cc(-c2cnc(Nc3cn(Cc4cccnc4)nc3C(F)(F)F)nc2)ccc1Cl` [Example 708, (S)-5-(3-((1-(1H-tetrazol-1-yl)propan-2-yl)oxy)-4-chlorophenyl)-N-(1-(pyridin-3-ylmethyl)-3-(trifluoromethyl)-1H-pyrazol-4-yl)pyrimidin-2-amine] yielded an IC50 under setting [1] of 10 to 100 nM.

In the case of `C[C@@H](Cn1cnnn1)Oc1cc(-c2cnc(Nc3cn(C4CCOC4)nc3C(F)(F)F)nc2)ccc1Cl` (stereo partly drawn) [Example 644, 5-(3-(((S)-1-(1H-tetrazol-1-yl)propan-2-yl)oxy)-4-chlorophenyl)-N-(1-(tetrahydrofuran-3-yl)-3-(trifluoromethyl)-1H-pyrazol-4-yl)pyrimidin-2-amine], the IC50 under setting [1] was 10 to 100 nM.

Under setting [1], `COc1cc(N2CCN3CCOCC3C2)ccc1Nc1ncc(-c2ccc(Cl)c(O[C@@H](C)Cn3cnnn3)c2)cn1` (stereo partly drawn) [Example 673, 5-(3-(((S)-1-(1H-tetrazol-1-yl)propan-2-yl)oxy)-4-chlorophenyl)-N-(4-(hexahydropyrazino[2,1-c][1,4]oxazin-8(1H)-yl)-2-methoxyphenyl)pyrimidin-2-amine] had an IC50 of less than 10 nM.

Molecule `Cc1ccc(N2CCC(N3CCOCC3)CC2)cc1Nc1ncc(-c2ccc(Cl)c(O[C@@H](C)Cn3cnnn3)c2)cn1` [Example 491] returned an IC50 under setting [2] of less than 10 nM.

`C[C@@H](Cn1cnnn1)Oc1cc(-c2cnc(Nc3cn(C4CCN(C5CCC(F)(F)CC5)CC4)nc3C(F)(F)F)nc2)ccc1Cl` [Example 555, (S)-5-(3-((1-(1H-tetrazol-1-yl)propan-2-yl)oxy)-4-chlorophenyl)-N-(1-(1-(4,4-difluorocyclohexyl)piperidin-4-yl)-3-(trifluoromethyl)-1H-pyrazol-4-yl)pyrimidin-2-amine] yielded an IC50 under setting [2] of less than 10 nM.

Under setting [1], `COc1cc(N2CCNCC2)ncc1Nc1ncc(-c2ccc(Cl)c(O[C@@H](C)Cn3cnnn3)c2)cn1` [Example 622, (S)-5-(3-((1-(1H-tetrazol-1-yl)propan-2-yl)oxy)-4-chlorophenyl)-N-(4-methoxy-6-(piperazin-1-yl)pyridin-3-yl)pyrimidin-2-amine] registered an IC50 of less than 10 nM.

`C[C@@H](Cn1cnnn1)Oc1cc(-c2cnc(Nc3cn(C4CCCN(C5COC5)C4)nc3C(F)(F)F)nc2)ccc1Cl` (stereo partly drawn) [Example 601, 5-(3-(((S)-1-(1H-tetrazol-1-yl)propan-2-yl)oxy)-4-chlorophenyl)-N-(1-(1-(oxetan-3-yl)piperidin-3-yl)-3-(trifluoromethyl)-1H-pyrazol-4-yl)pyrimidin-2-amine] yielded an IC50 under setting [1] of 10 to 100 nM.

In turn, `Cc1cc(Nc2ncc(-c3ccc(Cl)c(O[C@@H](C)Cn4cnnn4)c3)cn2)n(CC(F)(F)F)n1` [Example 659, (S)-5-(3-((1-(1H-tetrazol-1-yl)propan-2-yl)oxy)-4-chlorophenyl)-N-(3-methyl-1-(2,2,2-trifluoroethyl)-1H-pyrazol-5-yl)pyrimidin-2-amine] gave an IC50 under setting [1] of 10 to 100 nM.

Under setting [3], `C[C@@H](Cn1cnnn1)Oc1cc(-c2cnc(Nc3cn(C4CC5(C4)CN(C4COC(C)(C)OC4)C5)nc3C(F)(F)F)nc2)ccc1Cl` [Example 922, (S)-5-(3-((1-(1H-tetrazol-1-yl)propan-2-yl)oxy)-4-chlorophenyl)-N-(1-(2-(2,2-dimethyl-1,3-dioxan-5-yl)-2-azaspiro[3.3]heptan-6-yl)-3-(trifluoromethyl)-1H-pyrazol-4-yl)pyrimidin-2-amine] had an IC50 of less than 10 nM.

Consider `C[C@@H](Cn1cnnn1)Oc1cc(-c2cnc(Nc3cn(C4CCN(C5CCS(=O)(=O)CC5)CC4)nc3C(F)(F)F)nc2)ccc1Cl` [Example 565, (S)-4-(4-(4-((5-(3-((1-(1H-tetrazol-1-yl)propan-2-yl)oxy)-4-chlorophenyl)pyrimidin-2-yl)amino)-3-(trifluoromethyl)-1H-pyrazol-1-yl)piperidin-1-yl)tetrahydro-2H-thiopyran 1,1-dioxide], for which the IC50 under setting [2] was less than 10 nM.

Regarding `COc1cc2c(cc1Nc1ncc(-c3ccc(Cl)c(O[C@@H](C)Cn4cnnn4)c3)cn1)CCN(CC(F)(F)F)C2` [Example 490, (S)-N-(5-(3-((1-(1H-tetrazol-1-yl)propan-2-yl)oxy)-4-chlorophenyl)pyrimidin-2-yl)-7-methoxy-2-(2,2,2-trifluoroethyl)-1,2,3,4-tetrahydroisoquinolin-6-amine], the IC50 under setting [2] lay within 10 to 100 nM.

For `C[C@@H](Cn1cnnn1)Oc1cc(-c2cnc(Nc3cn(C[C@]4(O)CC[C@H](O)CC4)nc3OCC(F)(F)F)nc2)ccc1Cl` [Example 906, trans-1-((4-((5-(3-(((S)-1-(1H-tetrazol-1-yl)propan-2-yl)oxy)-4-chlorophenyl)pyrimidin-2-yl)amino)-3-(2,2,2-trifluoroethoxy)-1H-pyrazol-1-yl)methyl)cyclohexane-1,4-diol], under setting [3], the IC50 was less than 10 nM.

As to `COc1cc2c(cc1Nc1ncc(-c3ccc(C#N)c(O[C@@H](C)Cn4cnnn4)c3)cn1)NCCC2` [Example 590, (S)-2-((1-(1H-tetrazol-1-yl)propan-2-yl)oxy)-4-(2-((6-methoxy-1,2,3,4-tetrahydroquinolin-7-yl)amino)pyrimidin-5-yl)benzonitrile], under setting [1], the IC50 was less than 10 nM.

Under setting [2], `COc1cc(C2CCN(C3COC3)CC2)c(C)cc1Nc1ncc(-c2ccc(C#N)c(O[C@@H](C)Cn3cnnn3)c2)cn1` [Example 528, (S)-2-((1-(1H-tetrazol-1-yl)propan-2-yl)oxy)-4-(2-((2-methoxy-5-methyl-4-(1-(oxetan-3-yl)piperidin-4-yl)phenyl)amino)pyrimidin-5-yl)benzonitrile] came in with an IC50 of less than 10 nM.

`C[C@@H](Cn1cnnn1)Oc1cc(-c2cnc(Nc3cn(C4CCN(Cc5ccsc5)CC4)nc3C(F)(F)F)nc2)ccc1Cl` [Example 560, (S)-5-(3-((1-(1H-tetrazol-1-yl)propan-2-yl)oxy)-4-chlorophenyl)-N-(1-(1-(thiophen-3-ylmethyl)piperidin-4-yl)-3-(trifluoromethyl)-1H-pyrazol-4-yl)pyrimidin-2-amine]: the IC50 under setting [2] is less than 10 nM.

Turning to `C[C@@H](Cn1cnnn1)Oc1cc(-c2cnc(Nc3cn(C4CCNCC4)nc3C(F)(F)F)nc2)ccc1Cl` [Example 483, (S)-5-(3-((1-(1H-tetrazol-1-yl)propan-2-yl)oxy)-4-chlorophenyl)-N-(1-(piperidin-4-yl)-3-(trifluoromethyl)-1H-pyrazol-4-yl)pyrimidin-2-amine], the IC50 under setting [2] was less than 10 nM.

Molecule `C[C@@H](Cn1cnnn1)Oc1cc(-c2cnc(Nc3cn(C4CCN(C5CCOCC5)CC4)nc3OCCF)nc2)ccc1Cl` [Example 825, (S)-5-(3-((1-(1H-tetrazol-1-yl)propan-2-yl)oxy)-4-chlorophenyl)-N-(3-(2-fluoroethoxy)-1-(1-(tetrahydro-2H-pyran-4-yl)piperidin-4-yl)-1H-pyrazol-4-yl)pyrimidin-2-amine] showed an IC50 under setting [4] of less than 10 nM.

Under setting [1], `COc1nn(C2CCNCC2)cc1Nc1ncc(-c2ccc(Cl)c(O[C@@H](C)Cn3cnnn3)c2)cn1` [Example 657, (S)-5-(3-((1-(1H-tetrazol-1-yl)propan-2-yl)oxy)-4-chlorophenyl)-N-(3-methoxy-1-(piperidin-4-yl)-1H-pyrazol-4-yl)pyrimidin-2-amine] yielded an IC50 of less than 10 nM.

In turn, `C[C@@H](Cn1cccn1)Oc1cc(-c2cnc(Nc3cn([C@H]4CC[C@@H](N5CCOCC5)CC4)nc3OCC(F)(F)F)nc2)ccc1C#N` [Example 797, 2-(((S)-1-(1H-pyrazol-1-yl)propan-2-yl)oxy)-4-(2-((1-(cis-4-morpholinocyclohexyl)-3-(2,2,2-trifluoroethoxy)-1H-pyrazol-4-yl)amino)pyrimidin-5-yl)benzonitrile] showed an IC50 under setting [4] of 10 to 100 nM.
